Measured values from ChEMBL document CHEMBL2146404, “O-Hydroxyl- or o-amino benzylamine-tacrine hybrids: multifunctional biometals chelators, antioxidants, and inhibitors of cholinesterase activity and amyloid-β aggregation” (Bioorg Med Chem, 2012).
Calls of active or inactive are those of the source. The calls are words filed in the database; no cut-off is given here.

What was measured:
Acetylcholinesterase [1] = molecular target: Acetylcholinesterase (Homo sapiens, UniProt P22303); assay: Inhibition of human recombinant AChE using acetylthiocholine chloride as substrate preincubated for 15 mins by Ellman's method
[2] = Inhibition of […]-pretreated amyloid beta (1 to 42) self-aggregation at 20 uM after 48 hrs by thioflavin T based fluorometric assay
Cholinesterase = Cholinesterase (Equus caballus, UniProt P81908)
Description: Inhibition of equine serum BuChE using butyrylthiocholine chloride as substrate preincubated for 15 mins by Ellman's method

Acetylcholinesterase [3] = molecular target: Acetylcholinesterase (Electrophorus electricus, UniProt O42275)
Description: Inhibition of electric eel AChE using acetylthiocholine chloride as substrate preincubated for 15 mins by Ellman's method

[4] = Metal chelating activity of the compound assessed as cupric ion complex formation at 40 uM after 30 mins by UV-vis spectrometry; format: functional
[5] = Metal chelating activity of the compound assessed as zinc ion complex formation at 40 uM after 30 mins by UV-vis spectrometry; format: functional
[6] = Metal chelating activity of the compound assessed as ferrous ion complex formation at 40 uM after 30 mins by UV-vis spectrometry; format: functional

Acetylcholinesterase (Homo sapiens, UniProt P22303), sequence (P22303 whole entry): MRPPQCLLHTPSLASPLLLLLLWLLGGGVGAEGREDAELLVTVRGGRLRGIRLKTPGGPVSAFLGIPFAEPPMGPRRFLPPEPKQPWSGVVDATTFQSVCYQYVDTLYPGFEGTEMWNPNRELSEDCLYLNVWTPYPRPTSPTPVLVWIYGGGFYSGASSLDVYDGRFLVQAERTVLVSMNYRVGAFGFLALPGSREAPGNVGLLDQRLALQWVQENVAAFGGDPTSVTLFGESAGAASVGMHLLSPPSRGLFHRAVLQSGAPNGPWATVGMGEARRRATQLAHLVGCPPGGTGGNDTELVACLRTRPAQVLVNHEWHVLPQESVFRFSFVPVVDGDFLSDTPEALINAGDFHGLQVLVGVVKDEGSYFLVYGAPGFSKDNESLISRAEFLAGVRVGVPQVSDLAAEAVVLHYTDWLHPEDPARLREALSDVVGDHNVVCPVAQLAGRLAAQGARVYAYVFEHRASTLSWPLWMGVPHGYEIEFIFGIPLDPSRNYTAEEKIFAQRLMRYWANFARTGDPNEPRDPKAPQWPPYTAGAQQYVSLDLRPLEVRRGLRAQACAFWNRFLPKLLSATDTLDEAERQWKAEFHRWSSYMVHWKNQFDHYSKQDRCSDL
Cholinesterase, sequence (P81908 whole entry): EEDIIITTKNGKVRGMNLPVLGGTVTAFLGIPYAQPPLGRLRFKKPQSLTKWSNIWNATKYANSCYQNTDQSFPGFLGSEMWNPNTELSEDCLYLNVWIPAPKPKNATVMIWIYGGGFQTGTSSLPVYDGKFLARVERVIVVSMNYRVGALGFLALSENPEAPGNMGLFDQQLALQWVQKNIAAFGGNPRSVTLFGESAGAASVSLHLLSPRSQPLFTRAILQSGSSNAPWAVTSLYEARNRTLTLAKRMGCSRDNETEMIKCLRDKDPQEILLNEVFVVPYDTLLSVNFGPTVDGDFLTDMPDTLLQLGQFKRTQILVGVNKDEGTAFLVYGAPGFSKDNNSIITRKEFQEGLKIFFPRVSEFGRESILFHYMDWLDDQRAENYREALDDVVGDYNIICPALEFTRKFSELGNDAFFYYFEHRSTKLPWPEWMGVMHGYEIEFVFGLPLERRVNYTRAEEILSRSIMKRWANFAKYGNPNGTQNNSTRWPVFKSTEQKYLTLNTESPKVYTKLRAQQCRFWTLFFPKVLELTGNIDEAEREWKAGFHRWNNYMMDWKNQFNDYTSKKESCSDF
Acetylcholinesterase (Electrophorus electricus, UniProt O42275), sequence (O42275 whole entry): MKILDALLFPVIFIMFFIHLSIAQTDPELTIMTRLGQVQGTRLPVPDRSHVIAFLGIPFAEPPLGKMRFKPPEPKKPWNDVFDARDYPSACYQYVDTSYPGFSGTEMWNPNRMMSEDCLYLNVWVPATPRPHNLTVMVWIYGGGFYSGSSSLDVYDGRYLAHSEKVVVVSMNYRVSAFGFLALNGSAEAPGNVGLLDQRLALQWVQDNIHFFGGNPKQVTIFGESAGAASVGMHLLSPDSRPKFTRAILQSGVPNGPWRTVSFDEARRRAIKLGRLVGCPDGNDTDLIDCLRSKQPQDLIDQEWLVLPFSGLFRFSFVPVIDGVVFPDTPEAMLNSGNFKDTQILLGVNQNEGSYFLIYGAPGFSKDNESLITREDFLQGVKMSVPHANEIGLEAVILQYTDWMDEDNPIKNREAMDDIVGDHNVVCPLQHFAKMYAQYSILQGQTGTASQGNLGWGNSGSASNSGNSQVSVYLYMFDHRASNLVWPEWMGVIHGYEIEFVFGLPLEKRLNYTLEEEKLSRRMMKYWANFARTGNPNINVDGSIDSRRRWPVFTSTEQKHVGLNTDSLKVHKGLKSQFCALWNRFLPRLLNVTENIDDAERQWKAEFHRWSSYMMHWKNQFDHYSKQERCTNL

## CN(C)c1ccccc1CNCCCCCCCNc1c2c(nc3ccccc13)CCCC2
Acetylcholinesterase [1]
  IC50: 5.18 nM
[2]
  inhibition: 30.7%
Cholinesterase
  IC50: 2.92 nM
Acetylcholinesterase [3]
  IC50: 3.5 nM

## Oc1ccccc1CNCCCCCCCCCNc1c2c(nc3cc(Cl)ccc13)CCCC2
Cholinesterase
  IC50: 23 nM
Acetylcholinesterase [3]
  IC50: 7.78 nM

## CN(C)c1ccccc1CNCCCCCCCCNc1c2c(nc3ccccc13)CCCC2
Acetylcholinesterase [1]
  IC50: 4.04 nM
[2]
  inhibition: 38.6%
Cholinesterase
  IC50: 2.11 nM
Acetylcholinesterase [3]
  IC50: 1.55 nM

## Oc1ccccc1CNCCNc1c2c(nc3ccccc13)CCCC2
Cholinesterase
  IC50: 10 nM
Acetylcholinesterase [3]
  IC50: 146 nM

## Oc1ccccc1CNCCCCNc1c2c(nc3cc(Cl)ccc13)CCCC2
Cholinesterase
  IC50: 28.1 nM
Acetylcholinesterase [3]
  IC50: 125 nM

## Oc1ccccc1CNCCCCCCNc1c2c(nc3ccccc13)CCCC2
Cholinesterase
  IC50: 9.65 nM
Acetylcholinesterase [3]
  IC50: 25.1 nM

## Oc1ccccc1CNCCCCNc1c2c(nc3ccccc13)CCCC2
Cholinesterase
  IC50: 20.3 nM
Acetylcholinesterase [3]
  IC50: 252 nM

## Oc1ccccc1CNCCCCCCCCNc1c2c(nc3cc(Cl)ccc13)CCCC2
[2]
  inhibition: 25.8%
Cholinesterase
  IC50: 18.5 nM
Acetylcholinesterase [3]
  IC50: 6.77 nM

## Oc1ccccc1CNCCCCCCCNc1c2c(nc3ccccc13)CCCC2
Cholinesterase
  IC50: 5.84 nM
Acetylcholinesterase [3]
  IC50: 9.55 nM

## c1ccc(CNCCCCCCCCNc2c3c(nc4ccccc24)CCCC3)nc1
Cholinesterase
  IC50: 2.99 nM
Acetylcholinesterase [3]
  IC50: 2.95 nM

## Oc1ccccc1CNCCNc1c2c(nc3cc(Cl)ccc13)CCCC2
Cholinesterase
  IC50: 9.97 nM
Acetylcholinesterase [3]
  IC50: 22.5 nM

## CCN(CC)c1ccccc1CNCCCCCCCCNc1c2c(nc3ccccc13)CCCC2
[2]
  inhibition: 40.1%
Cholinesterase
  IC50: 2.82 nM
Acetylcholinesterase [3]
  IC50: 1.36 nM

## Oc1ccccc1CNCCCCCCNc1c2c(nc3cc(Cl)ccc13)CCCC2
Cholinesterase
  IC50: 11.1 nM
Acetylcholinesterase [3]
  IC50: 43 nM

## Oc1ccccc1CNCCCCCCCNc1c2c(nc3cc(Cl)ccc13)CCCC2
Cholinesterase
  IC50: 17.8 nM
Acetylcholinesterase [3]
  IC50: 10.5 nM

## Oc1ccccc1CNCCCCCCCCCNc1c2c(nc3ccccc13)CCCC2
Cholinesterase
  IC50: 8.2 nM
Acetylcholinesterase [3]
  IC50: 7.52 nM

## Oc1ccccc1CNCCCNc1c2c(nc3cc(Cl)ccc13)CCCC2
Cholinesterase
  IC50: 76.5 nM
Acetylcholinesterase [3]
  IC50: 43.3 nM

## CN(C)c1ccccc1CNCCCCCCCCCNc1c2c(nc3ccccc13)CCCC2
[4]
  Activity: Active
Acetylcholinesterase [1]
  IC50: 3.52 nM
[2]
  inhibition: 39.4%
[5]
  Activity: Active
Cholinesterase
  IC50: 2.65 nM
Acetylcholinesterase [3]
  IC50: 0.55 nM
[6]
  Activity: Active

## Oc1ccccc1CNCCCNc1c2c(nc3ccccc13)CCCC2
Cholinesterase
  IC50: 46.1 nM
Acetylcholinesterase [3]
  IC50: 131 nM

## Oc1ccccc1CNCCCCCCCCNc1c2c(nc3ccccc13)CCCC2
Cholinesterase
  IC50: 6.25 nM
Acetylcholinesterase [3]
  IC50: 6.17 nM
